Values of other authors as cited in patent publication US20110280834A1, “METHODS AND COMPOSITIONS FOR CARDIAC TISSUE REGENERATION” (priority 2009, published 2011).

Details: rat, in vivo, ip, 70 umol/kg

SMILES: O=c1[nH]c(=O)n([C@H]2C[C@H](O)[C@@H](CO)O2)cc1Br [BrdU]
- half-life: 2 h
